The test system of one data set is Sig-1R/BiP interaction. The data set is described as follows: BiP/Sig-1R association assay in CHO cells. The data set is classed as cell-based. The following applies: for Effect on Sig-1R/BiP association: 10 µM. The protocol: The interaction between Sig-1R and the chaperone BiP was used to identify the functional nature (agonistic or antagonistic) of compounds [38]. The assay was conducted by Amylgen according to their standard assay protocol (https://www.amylgen.fr/ (accessed on 15 May 2022)). Each assay condition consisted of six determinations. In brief, CHO cells were treated with compounds at 37 °C for 30 min and lysed. CHO cell lysates were immunoprecipitated with Sig-1R antibody, and coimmunoprecipitated BiP was detected by ELISA assay. In each experiment, untreated control cell lysates were used to assess the maximal level of Sig1R-BiP interaction and represented 100% of Sig1R-BiP association. Cells treated with compounds at the corresponding concentrations were equally processed, and the level of Sig1R-BiP association in those conditions was referred to as the control condition. In this experimental setting, Sig1R agonists were able to reduce the Sig1R-BiP interaction, while antagonists were not.

Data set [1] concerns NMJs of hindlimb muscle in SOD1^G93A mice. The data set can be described thus: Neuromuscular junction innervation in SOD1G93A mice. The data set is classed as in vivo, SOD1^G93A male mice. The following applies: 0.25 mg/kg i.p.; 16 weeks of age. The protocol: (§1) The compounds were dissolved in 0.5% hydroxypropyl-methylcellulose (HPMC; H7509, Sigma-Aldrich) in distilled water and were administered by intraperitoneal (i.p.) route twice daily (bid) in a volume of 10 mL/kg. Administrations were given from 30 min after rhizotomy surgery until 42 days post-injury (dpi), the end of the study; in the SOD1^G93A study, treatments were given from 8 to 16 weeks of age (see Figure 6).
For neuromuscular junction (NMJ) labeling, 50 µm thick longitudinal sections of TA muscle were serially cut. Sections were blocked with 5% normal donkey serum and incubated with primary antibodies rabbit anti-synaptophysin (1:500; Ab32127, Abcam, Cambridge, UK) and chicken anti-neurofilament 200 (NF200, 1:1000; AB5539, Millipore, Burlington, MS, USA) 48 h at 4 °C. After washes, sections were incubated overnight with secondary antibody Alexa Fluor 594-donkey anti-rabbit and anti-chicken (1:200; A11042-A21207, Invitrogen, USA) and Alexa 488 conjugated α-bungarotoxin (1:500; B13422, Life Technologies, Carlsbad, CA USA). Confocal images were captured (LSM 700 Axio Observer, Carl Zeiss, Jena, Germany, 40xOil/z0.5), and the maximum projection images generated from 1.3 µm z projections. The proportion of innervated NMJs was calculated by classifying each endplate as occupied (when presynaptic terminals overlie the endplate) or vacant (no presynaptic label in contact with the endplate). At least 60 endplates were analyzed per muscle.

The test system of data set [2] is microglia and astrocytes in ventral horn after rhizotomy. The data set can be described thus: Glial reactivity after L4-L5 rhizotomy (Iba1, GFAP immunolabeling). The following applies: 0.25 mg/kg bid i.p., 42 dpi. The class given is in vivo, female mice (B6SJL). The protocol:
(§2) Surgeries were performed on three-month-old mice under anesthesia with ketamine-xylazine (100–10 mg/kg i.p.) as previously described. Briefly, the L4-L5 spinal roots were exposed by a small laminectomy on the right side. Afterwards, roots were cut at the exit from the intervertebral foramina, and the root stumps were separated. Mice were cared for until recovery in a warm environment. Analgesia was provided with buprenorphine (0.1 mg/kg) for the next 48 h post-surgery.
as §1
(§3) For glial cells immunofluorescence, other lumbar spinal cord sections were blocked with 10% normal donkey serum and incubated overnight with primary antibodies rabbit anti-Iba1 (1:500; 019–19741, Wako) and rat anti-GFAP (1:500; 13-0300, Invitrogen) to label microglia and astroglia, respectively. After several washes, sections were incubated with secondary antibodies Alexa Fluor 488-donkey anti-rat (1:500; A-21208, Invitrogen) or Alexa Fluor 594 donkey anti-rabbit (1:500; A21207, Invitrogen). Finally, sides were mounted with Fluoromount-G. To quantify glial cell reactivity, images of the ventral horn were acquired with an epifluorescence microscope (Nikon Eclipse Ni, Japan) using the same conditions for each analyzed marker. After defining a threshold for background correction, the integrated density of GFAP or Iba1 labeling was measured using ImageJ software.

The nature of data set [3]: Plasma levels, spinal nerve injury (rhizotomy) model. The class given is in vivo, female mouse. As to conditions: plasma, ip; spinal nerve injury female mouse, 0.25 mg/kg i.p.; 30 min post-administration; data obtained in a separate study. Here is the method: as §1
Plasma levels were determined in the two in vivo models evaluated to be able to associate the pharmacological activity with the levels present in plasma. […] In the SOD1^G93A model, the plasma levels were evaluated at 16 weeks of age (after 8 weeks of administration) and 15 min after compound administration (5 mg/kg i.p.). Plasma samples were assayed by ultraperformance liquid chromatography−triple quadrupole mass spectrometry (UPLC-MS/MS) after plasma protein precipitation. Results are expressed as mean ± standard deviation (n = 8).

Data set [4] can be described thus: Plasma levels, SOD1G93A model. The class given is in vivo, Transgenic SOD1^G93A male mouse. As to conditions: SOD1G93A transgenic, plasma, ip; SOD1G93A male mouse, 0.25 mg/kg i.p.; 30 min post-administration; data obtained in a separate study. Here is the method:
as §1
Plasma levels were determined in the two in vivo models evaluated to be able to associate the pharmacological activity with the levels present in plasma. In the rhizotomy model, the plasma levels were evaluated at Day 42 after surgery and at 15 min after compound administration (0.5 and 5 mg/kg i.p.). […] Plasma samples were assayed by ultraperformance liquid chromatography−triple quadrupole mass spectrometry (UPLC-MS/MS) after plasma protein precipitation. Results are expressed as mean ± standard deviation (n = 8).

The test system of data set [5] is microglia and astrocytes in ventral horn of SOD1^G93A mice. The data set is described as follows: Glial reactivity in SOD1G93A mice (Iba1, GFAP). The data set is classed as in vivo, SOD1^G93A male mice. The following applies: 0.25 mg/kg i.p.; 16 weeks of age. The protocol: as §1, §3
Data set [6] deals with spinal α-MNs in SOD1^G93A mice. The data set can be described thus: Spinal MN counts in SOD1G93A mice. The following applies: 0.25 mg/kg i.p.; 16 weeks of age. The class given is in vivo, SOD1^G93A male mice. Here is the method:
as §1
(§4) At the end of follow-up (42 dpi for rhizotomy and 16 weeks of age for ALS mice; Figure 6), the animals were deeply anesthetized and transcardially perfused with 4% PFA in PBS. The lumbar spinal cord and the TA muscle were harvested and cryopreserved in 30% sucrose solution in PB. The spinal cords were serially cut in 20 µm thick transverse sections with a cryostat (Leica, Mannheim, Germany). For MN counting, L4-L5 spinal cord sections separated 100 µm were stained for 3 h with an acidified solution of 3.1 mM cresyl violet. MNs were identified by their localization in the lateral ventral horn of the spinal cord and were counted following strict size and morphological criteria: only MNs with a diameter larger than 20 µm, polygonal shape, and prominent nucleoli were counted.

The test system of data set [7] is spinal MNs after L4-L5 rhizotomy. The data set can be described thus: MN survival after L4-L5 rhizotomy (cresyl violet MN counts). The data set is classed as in vivo, female mice (B6SJL). As to conditions: 0.25 mg/kg bid i.p., 42 dpi; positive control. The protocol: as §2, §1, §4
A short description of data set [8]: Body weight in SOD1G93A mice. The following applies: 0.25 mg/kg i.p., 8 to 16 weeks of age. The data set is classed as in vivo, SOD1^G93A male mice. The protocol:
as §1

The target in data set [9] is T1, human Sigma-2 receptor (Sig-2R) (Homo sapiens, UniProt Q5BJF2).
T1 construct: expressed in transfected cells; host or cells: HEK-293 Sig-1R knockout (membranes)
T1 sequence (Q5BJF2 whole entry): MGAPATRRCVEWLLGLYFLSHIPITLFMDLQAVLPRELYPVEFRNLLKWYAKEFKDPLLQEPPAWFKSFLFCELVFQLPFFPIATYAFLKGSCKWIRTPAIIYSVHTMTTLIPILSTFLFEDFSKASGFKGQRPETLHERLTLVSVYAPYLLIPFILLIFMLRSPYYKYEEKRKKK
The data set is described as follows: Human Sig-2R radioligand assay. The class given is binding. As to conditions: [3H]-DTG, transfected HEK-293 Sig-1R knockout membranes. The protocol: The binding properties of the compounds to the human Sig-2R were similarly studied in transfected HEK-293 Sig-1R knockout membranes using [^3H]-1,3-di-o-tolylguanidine (DTG) (NET-986, PerkinElmer; Boston, USA) as the radioligand. The assay was carried out with 15 μg of membrane suspension, [^3H]-1,3-di-o-tolylguanidine (DTG) (10 nM, 100 μL), in either the absence or presence of either buffer or 10 μM haloperidol for total (TB) and nonspecific (NSB) binding, respectively, or the corresponding compound concentration. Binding buffer contained Tris-HCl (50 mM, pH 7.4). Plates were incubated at 25 °C for 120 min. After incubation, the reaction mix was transferred to MultiScreen HTS, FC plates (Merck Millipore) presoaked in 0.5% polyethyleneimine, and filtered. Following that, plates were washed with ice-cold Tris-HCl (10 mM, pH 8). Filters were dried and counted, and data were processed as above.

For a further data set, the system named is SOD1^G93A mice. The data set can be described thus: Rotarod test in SOD1G93A mice. The following applies: 0.25 mg/kg i.p.; at 15 and 16 weeks. The class given is in vivo, SOD1^G93A male mice. Here is the method:
as §1
A rotarod test was performed to evaluate motor coordination and strength. The time that each animal remained on the rotating rod at a speed of 14 rpm was measured for five trials per mouse, and the longest time until falling was recorded; 180 s was chosen as the cut-off time. The test was performed weekly from 8 to 16 weeks of age in SOD1^G93A and WT mice, and disease onset was determined as the first week when each mouse was unable to keep walking for 180 s on the rod.

Data set [10] concerns NSC34 SOD1^G93A-induced cell death. Further details: method as in PMID 24334165. As to conditions: more significant effect at 10 μM; cited from earlier work.

We go through 3 compounds from PMC9223397 (International Journal of Molecular Sciences, 2022).

Molecules are shown by their SMILES.

Take `CCCN(CCC)CCc1ccc(OC)c(OCCc2ccccc2)c1` [NE100, reference compound]: in the data set with Sig-1R/BiP interaction, the “Effect on Sig-1R/BiP association” value is on record as “antagonist effect”. Also, the “Reversion of the effect of PRE-084 on Sig-1R/BiP association” value with Sig-1R/BiP interaction (compound 10 µM, PRE-084 10 µM) was “able to revert the effect of PRE-084”.

For orientation: IC50 means the concentration at which inhibition is half-maximal. A high value points to lower potency. Take `O=C(OCCN1CCOCC1)C1(c2ccccc2)CCCCC1` [PRE-084, 2-(4-Morpholinethyl)1-Phenylcyclohexanecarboxylate, reference compound]: the “Effect on Sig-1R/BiP association” value with Sig-1R/BiP interaction is “Agonist effect”. The “Proportion of innervated endplates (NMJ) vs untreated” value in data set [1] is listed as “significantly increased the proportion of innervated endplates”. For the same compound, the “GFAP integrated density ± SEM (astroglial reactivity)” value in [2] was 6 × 10^4 ± 0.9 × 10^4. Also, in data set [2], the “Iba1 integrated density ± SEM (microglial reactivity)” value is given as 15 × 10^4 ± 1.4 × 10^4. In addition, the concentration at 30 min was 3.6 ng/mL in data set [3] and 2.6 ng/mL in data set [4]. In addition, the “Astrocyte activation (GFAP)” value in [5] is reported as “significant decrease in astrocyte activation”. Also, the “Number of surviving spinal α-MNs” value in data set [6] stood at 12.4 ± 0.9 MNs per section. Also, the “Number of spinal MNs ± SEM, ipsilateral ventral horn” value in [7] is 8.9 ± 0.4. Moreover, the “Body weight vs vehicle group” value in data set [8] is given as “did not cause differences in body weight”. In addition, the IC50 in data set [9] is more than 10 µM. Besides, the “Rotarod performance vs vehicle” value in the data set on SOD1^G93A mice is listed as “significantly improved the functional outcome”.

Turning to `COc1ccc(CCN2CCN(CCCc3ccccc3)CC2)cc1OC` [SA4503], in data set [10], the “NSC34 SOD1G93A-induced cell death” value is reported as “reduced NSC34 SOD1^G93A-induced cell death in a concentration-dependent manner”.
